# Test results from publication PMC11930985 (Nature Communications, 2025).
# Where two headings read alike, the source gives them in different places.
# How the values were obtained:
# [1] = molecular target: Flt4; set-up: method as in Investigator's Brochure (IB) version 5.0; settings: ref Investigator's Brochure (IB) version 5.0; cited from earlier work
# [2] = system: AML/MDS patients; experiment: Kaplan-Meier OS, EFS, RFS; type: in vivo, human
# Protocol: Response assessments (peripheral blood and BM) were performed at Cycle 2 Day 1 (pre-dose), Cycle 4 Day 1 (pre-dose) and repeated every 3 cycles thereafter or when clinically indicated. Patients who completed 12 months of study treatment and had not experienced progressive disease (PD) underwent response assessment every 5 cycles until PD was confirmed. Efficacy endpoints were: Objective response rate (ORR), defined as the number of patients with CR, CRi, MLFS, MR or PR divided by the total number of patients in the cohort/group; Disease control rate (DCR), defined as the number of patients with CR, CRi, MLFS, MR, PR or unchanged disease for at least three cycles (considered to have stable disease (SD)) divided by the total number of patients in the cohort/group; Overall survival (OS), defined as (date of death or censoring) – (date of the first study treatment) +1. Censoring date was the last date the patient was known to be alive; Event free survival (EFS), defined as (earliest of date of death, date of progression or date of censoring) – (date of the first study treatment) +1, with event defined as death or progression. Patients who started a new anti-cancer treatment before documented progression were censored at the date of the last assessment prior to start of non-protocol treatment. […] Patients who were alive without documented progression on the last day of contact were censored at the date of the last assessment.
# Analyses were performed on response data, AEs, and PK parameters. Subgroup analysis by sex was not performed due to the small number of patients. Statistical analyses were performed using descriptive statistics. The time-to-event variables RFS, EFS, and OS were analyzed using Kaplan-Meier estimates, and median time-to-event was reported alongside its 95% confidence interval (CI). Where relevant, differences between different subgroups for time-to-event endpoints were assessed using a one-tailed log-rank test.
# [3] = system: MD V 4-11 xenograft; set-up: method as in Investigator's Brochure (IB) version 5.0; settings: ref Investigator's Brochure (IB) version 5.0, cited from earlier work
# [4] = molecular target: Ret; set-up: method as in Investigator's Brochure (IB) version 5.0; settings: ref Investigator's Brochure (IB) version 5.0; cited from earlier work
# [5] = system: healthy male subjects; set-up: method as in Protocol BGBC001; settings: ref Protocol BGBC001, cited from earlier work
# [6] = system: Hoxa9/Meis1 leukemia; set-up: method as in Ben-Batalla et al., 2013; settings: ref Ben-Batalla et al., 2013; cited from earlier work
# [7] = system: AML/MDS patients; experiment: Dose-limiting toxicity assessment, 3+3 dose escalation; type: in vivo
# Excerpt: The study consisted of a phase 1b dose escalation, followed by a phase 2a cohort expansion. […] Due to the introduction of an enhanced formulation, the study was extended with a second dose escalation cohort following a 3 + 3 study design, also with expansion at the selected dose (Fig. 1).
# The conventional 3 + 3 study design gives a 71% chance of escalation if the true but unknown rate of DLT is 20%, and <50% chance of escalation if the true but unknown rate of DLT is >30%. […] Based on a one-sided, within-group test of proportions comparing an anticipated ORR of >20% against the null hypothesis rate of 5%, with power 80% and type I error 0.2 (suitable as evidence of a trend worthy of future study), a sample size of up to 14 evaluable patients was selected for B2. On the same basis, for B5 an initial sample size of 14 relapsed and 14 refractory AML patients was planned. However, upon regulatory review by the FDA, this was reduced to 20 R/R AML patients with 4 refractory AML patients. For this early-stage study, the efficacy analyses are secondary endpoints, and no account was taken of the multiplicity inherent in the assessment of several, presumably non-independent criteria, for ORR.
# [8] = system: Ret; set-up: method as in Investigator's Brochure (IB) version 5.0; settings: ref Investigator's Brochure (IB) version 5.0; cited from earlier work; remark: listed apart in the source
compound,measurement,setting,value
Nc1nc(Nc2ccc3c(c2)CC[C@@H](N2CCCC2)CC3)nn1-c1cc2c(nn1)-c1ccccc1CCC2 [Bemcentinib],Kd,[1],460 nM
same,mEFS (95% CI),"[2]; DE 200/100 mg, N=4",4.4 (0.5-NA) months
same,mOS (95% CI),"[2]; DE 200/100 mg, N=4",5.9 (4.4-NA) months
same,mEFS (95% CI),"[2]; DE 400/100 mg, N=6",5.3 (2.6-NA) months
same,mOS (95% CI),"[2]; DE 400/100 mg, N=6",19 (2.6-NA) months
same,mEFS (95% CI),"[2]; DE 400/200 mg, N=7",1.6 (0.7-NA) months
same,mOS (95% CI),"[2]; DE 400/200 mg, N=7",8.6 (0.8-NA) months
same,mEFS (95% CI),"[2]; DE 600/200 mg, N=14",1.2 (0.7-2.1) months
same,mOS (95% CI),"[2]; DE 600/200 mg, N=14",2.5 (1.1-NA) months
same,mOS (95% CI),"[2]; DE 900/300 mg, N=5",6.9 (NA-NA) months
same,mEFS (95% CI),"[2]; DE overall, N=36",2.1 (1.4-2.8) months
same,mOS (95% CI),"[2]; DE overall, N=36",5.3 (2.6-9.1) months
same,Reduction in tumor burden,[3]; oral treatment,dose-dependent
same,Axl and ERK phosphorylation levels,[3],dose-dependent reduction
same,Kd,[4],73 nM
same,"Non-Cardiac Chest Pain, Maximum Grade (CTCAE version 4.0)","[5]; 50 mg, 4 fasted, 1 fed",One
same,"Orthostatic hypotension, Maximum Grade (CTCAE version 4.0)","[5]; 100 mg, 4 fasted, 2 fed",One
same,"Abdominal Distension x 2, Maximum Grade (CTCAE version 4.0)","[5]; 150 mg, 4 fasted, 1 fed",One
same,"Diarrhoea, Maximum Grade (CTCAE version 4.0)","[5]; 400 mg, 4 fasted, 2 fed",One
same,"Diarrhoea, Maximum Grade (CTCAE version 4.0)","[5]; 600 mg, 4 fasted",One
same,"Flatulence, Maximum Grade (CTCAE version 4.0)","[5]; 600 mg, 4 fasted",One
same,"Nausea x 2, Maximum Grade (CTCAE version 4.0)","[5]; 600 mg, 4 fasted",One
same,"Nausea, Maximum Grade (CTCAE version 4.0)","[5]; 1000 mg, 4 fasted",One
same,"Diarrhoea, Maximum Grade (CTCAE version 4.0)","[5]; 1500 mg, 4 fasted",One
same,"Dizziness, Maximum Grade (CTCAE version 4.0)","[5]; 1500 mg, 4 fasted",One
same,"Headache, Maximum Grade (CTCAE version 4.0)","[5]; 1500 mg, 4 fasted",One
same,"Nausea, Maximum Grade (CTCAE version 4.0)","[5]; 1500 mg, 4 fasted",Two
same,"Vomiting, Maximum Grade (CTCAE version 4.0)","[5]; 1500 mg, 4 fasted",Two
same,Serious adverse events (SAE),[5]; single dose 50-1500 mg,No serious adverse events
same,Survival,[6],prolong
same,Formal criteria for a maximum tolerated dose,[7]; DE cohort,not met
same,Recommended phase 2 dose (loading/maintenance),"[7]; human, in vivo, 3 weeks",400/200
same,Dose-limiting toxicities (DLT) observed,[7]; in vivo,Three
same,IC50,[8],38 nM
